Test results as given in patent publication US20230097157A1, “Bicyclic Pyridin-2-one and pyrimidin-4-one Derivatives Useful As a Factor XIa Inhibitors” (Janssen Pharmaceutica NV, priority 2021, published 2023).
Like-named read-outs stand apart in the source and are kept apart here.

Key:
human plasma kallikrein = human plasma kallikrein (Homo sapiens, UniProt P03952); test: Kallikrein inhibition assay (FLINT) utilizing a quenched AMC peptide substrate Z-Gly-Pro-Arg-AMC; format: biochemical; conditions: kinetic (KIN) reads, read-out: Kallikrein KIN Inh IC50
Sequence of human plasma kallikrein (P03952 391-638 limits assumed): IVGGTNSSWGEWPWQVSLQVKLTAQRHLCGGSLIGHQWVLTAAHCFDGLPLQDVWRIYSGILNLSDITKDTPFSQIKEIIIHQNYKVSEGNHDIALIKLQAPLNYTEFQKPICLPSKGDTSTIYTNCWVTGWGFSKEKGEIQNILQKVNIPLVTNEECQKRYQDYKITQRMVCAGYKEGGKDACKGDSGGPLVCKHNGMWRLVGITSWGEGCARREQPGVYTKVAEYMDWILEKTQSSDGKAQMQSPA
Sequence of human plasma kallikrein (P03952 20-390 partner limits assumed): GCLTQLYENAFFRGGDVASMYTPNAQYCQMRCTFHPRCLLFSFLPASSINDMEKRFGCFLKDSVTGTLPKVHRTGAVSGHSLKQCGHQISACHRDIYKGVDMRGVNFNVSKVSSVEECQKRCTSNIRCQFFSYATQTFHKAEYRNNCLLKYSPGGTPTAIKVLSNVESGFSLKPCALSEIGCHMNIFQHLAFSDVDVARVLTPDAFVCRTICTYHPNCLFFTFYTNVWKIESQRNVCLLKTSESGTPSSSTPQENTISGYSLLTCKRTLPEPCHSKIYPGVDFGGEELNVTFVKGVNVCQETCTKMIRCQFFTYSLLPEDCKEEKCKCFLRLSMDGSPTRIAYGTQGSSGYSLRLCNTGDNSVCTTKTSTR
Outline: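 IC50 from a 4-parameter logistic fit of % inhibition from 11 concentrations (3-fold, top 1 μM, 2% DMSO). Compound pre-incubated 30 min with 2 nM enzyme in Tris pH 7.5, NaCl, CaCl2, BSA, CHAPS, then 50 μM AMC peptide substrate added. Fluorescence (340/440 nm) followed every 5 min for 30 min at room temperature.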

Factor XIa = Factor XIa (Homo sapiens, UniProt P03951); test: Factor XIa inhibition assay (FLINT) utilizing a fluorophore-quencher pair peptide substrate 5Fam-[…]-K5Tamra; format: biochemical; conditions: kinetic (KIN) reads, read-out: FXIa KIN Inh IC50
Sequence of Factor XIa (P03951 388-625 limits assumed): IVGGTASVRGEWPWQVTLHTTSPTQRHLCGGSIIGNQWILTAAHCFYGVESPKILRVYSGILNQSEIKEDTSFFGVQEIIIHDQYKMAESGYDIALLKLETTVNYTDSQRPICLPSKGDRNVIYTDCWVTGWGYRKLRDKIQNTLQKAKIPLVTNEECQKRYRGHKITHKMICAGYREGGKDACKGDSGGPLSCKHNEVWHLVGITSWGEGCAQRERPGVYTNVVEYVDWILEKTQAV
Sequence of Factor XIa (P03951 19-387 partner limits assumed): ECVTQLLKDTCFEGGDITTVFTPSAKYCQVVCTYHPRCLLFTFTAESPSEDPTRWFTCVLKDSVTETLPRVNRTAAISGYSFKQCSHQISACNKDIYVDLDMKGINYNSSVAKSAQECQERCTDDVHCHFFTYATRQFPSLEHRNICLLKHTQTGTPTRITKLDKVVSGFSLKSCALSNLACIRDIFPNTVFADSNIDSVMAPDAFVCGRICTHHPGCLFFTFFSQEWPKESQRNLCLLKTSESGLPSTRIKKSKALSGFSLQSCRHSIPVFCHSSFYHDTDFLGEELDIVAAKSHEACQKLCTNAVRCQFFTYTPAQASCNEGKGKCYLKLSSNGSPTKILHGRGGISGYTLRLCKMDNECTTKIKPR
Outline: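 Compounds were tested as 11-point 3-fold dilutions from 100 nM (2% DMSO). They were preincubated 30 min with FXIa in 50 mM Tris pH 7.5, 5 mM CaCl2, then 15 μM fluorophore-quencher peptide was added. Cleavage was followed at 485/520 nm over 30 min, and IC50 was derived by 4-parameter logistic fit.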

SMILES | IC50 (human plasma kallikrein; values in nM) [nM] | IC50 (Factor XIa; values in nM) [nM] | IC50 (human plasma kallikrein; unit μM) [nM] | IC50 (Factor XIa; unit μM) [nM]
Nc1nsc2cc(-c3cnc([C@H]4CC5(CC5)c5nc(-c6c(-n7cnnn7)ccc(Cl)c6F)cc(=O)n54)[nH]3)ccc12 [Example 82, (R)-6′-(5-(3-Aminobenzo[d]isothiazol-6-yl)-1H-imidazol-2-yl)-2′-(3-chloro-2-fluoro-6-(1H-tetrazol-1-yl)phenyl)-6′,7′-dihydro-4′H-spiro[cyclopropane-1,8′-pyrrolo[1,2-a]pyrimidin]-4′-one] | 142 | 53.8 |  | 
C[C@H]1C[C@@H](c2ncc(-c3cnc(F)c(N)c3)[nH]2)n2c1cc(-c1c(-n3cnnn3)ccc(Cl)c1F)cc2=O [Example 21, (1S,3S)-3-(5-(5-Amino-6-fluoropyridin-3-yl)-1H-imidazol-2-yl)-7-(3-chloro-2-fluoro-6-(1H-tetrazol-1-yl)phenyl)-1-methyl-2,3-dihydroindolizin-5(1H)-one] | 340 | 64.4 |  | 
Nc1nsc2cc(-c3cnc([C@@H]4CC5(CC5)c5nc(-c6c(-n7cnnn7)ccc(Cl)c6F)cc(=O)n54)[nH]3)ccc12 [Example 81, (S)-6′-(5-(3-Aminobenzo[d]isothiazol-6-yl)-1H-imidazol-2-yl)-2′-(3-chloro-2-fluoro-6-(1H-tetrazol-1-yl)phenyl)-6′,7′-dihydro-4′H-spiro[cyclopropane-1,8′-pyrrolo[1,2-a]pyrimidin]-4′-one] | 0.9 | 0.6 |  | 
COc1nc(N)cnc1-c1cnc([C@@H]2C[C@H](C)c3nc(-c4c(-n5cnnn5)ccc(Cl)c4F)cc(=O)n32)[nH]1 (relative stereo) [Example 84, (6*S,8*S)-6-(5-(5-Amino-3-methoxypyrazin-2-yl)-1H-imidazol-2-yl)-2-(3-chloro-2-fluoro-6-(1H-tetrazol-1-yl)phenyl)-8-methyl-7,8-dihydropyrrolo[1,2-a]pyrimidin-4(6H)-one] | 31.9 | 5.7 |  | 
C[C@@H]1C[C@@H](c2ncc(-c3ccc(N)nc3Cl)[nH]2)n2c1cc(-c1c(-n3cnnn3)ccc(Cl)c1F)cc2=O [Example 58, (1R,3S)-3-(5-(6-Amino-2-chloropyridin-3-yl)-1H-imidazol-2-yl)-7-(3-chloro-2-fluoro-6-(1H-tetrazol-1-yl)phenyl)-1-methyl-2,3-dihydroindolizin-5(1H)-one] | 3.1 | 0.4 |  | 
C[C@H]1C[C@@H](c2ncc(-c3c(C#N)cnn3C)[nH]2)n2c1cc(-c1c(-n3cnnn3)ccc(Cl)c1F)cc2=O [Example 14, 5-(2-((1S,3S)-7-(3-Chloro-2-fluoro-6-(1H-tetrazol-1-yl)phenyl)-1-methyl-5-oxo-1,2,3,5-tetrahydroindolizin-3-yl)-1H-imidazol-5-yl)-1-methyl-1H-pyrazole-4-carbonitrile] |  | 189 | 4700 | 
COc1cc(-c2cnc([C@H]3C[C@@H](C)c4nc(-c5c(-n6cnnn6)ccc(Cl)c5F)cc(=O)n43)[nH]2)ccn1 (stereo in doubt) [Example 99, (6*R,8*R)-2-(3-Chloro-2-fluoro-6-(1H-tetrazol-1-yl)phenyl)-6-(5-(2-methoxypyridin-4-yl)-1H-imidazol-2-yl)-8-methyl-7,8-dihydropyrrolo[1,2-a]pyrimidin-4(6H)-one] | 23.8 | 8 |  | 
COC(=O)Nc1ccc(-c2cnc([C@@H]3C[C@H](C)c4nc(-c5c(-n6cnnn6)ccc(Cl)c5F)cc(=O)n43)[nH]2)cn1 (stereo in doubt) [Example 116, Methyl (5-(2-((6*S,8*S)-2-(3-Chloro-2-fluoro-6-(1H-tetrazol-1-yl)phenyl)-8-methyl-4-oxo-4,6,7,8-tetrahydropyrrolo[1,2-a]pyrimidin-6-yl)-1H-imidazol-5-yl)pyridin-2-yl)carbamate] | 26.8 | 1.2 |  | 
C[C@H]1C[C@@H](c2ncc(-c3cc(N)nn3C)[nH]2)n2c1cc(-c1c(-n3cnnn3)ccc(Cl)c1F)cc2=O [Example 15, (1S,3S)-3-(5-(3-Amino-1-methyl-1H-pyrazol-5-yl)-1H-imidazol-2-yl)-7-(3-chloro-2-fluoro-6-(1H-tetrazol-1-yl)phenyl)-1-methyl-2,3-dihydroindolizin-5(1H)-one] |  | 165 | 3200 | 
C[C@H]1C[C@H](c2ncc(-c3ccc(N)nc3Cl)[nH]2)n2c1nc(-c1c(-n3cnnn3)ccc(Cl)c1F)cc2=O [Example 141] | 13.5 | 0.5 |  | 
C[C@H]1C[C@@H](c2ncc(-c3ccnc(C#N)c3)[nH]2)n2c1cc(-c1c(-n3cnnn3)ccc(Cl)c1F)cc2=O (relative stereo) [Example 32, 4-(2-((1S,3S)-7-(3-Chloro-2-fluoro-6-(1H-tetrazol-1-yl)phenyl)-1-methyl-5-oxo-1,2,3,5-tetrahydroindolizin-3-yl)-1_H-imidazol-5-yl)picolinonitrile] | 90.7 | 11.2 |  | 
[2H]C([2H])([2H])OC(=O)Nc1ccc(-c2cnc(C3CC4(CC4)c4nc(-c5c(-n6cnnn6)ccc(Cl)c5F)cc(=O)n43)[nH]2)cc1 (single isomer, unassigned) [Example 72, Methyl-d3 (S*)-(4-(2-(2′-(3-Chloro-2-fluoro-6-(1H-tetrazol-1-yl)phenyl)-4′-oxo-6′,7′-dihydro-4′H-spiro[cyclopropane-1,8′-pyrrolo[1,2-a]pyrimidin]-6′-yl)-1H-imidazol-5-yl)phenyl)carbamate] | 3.3 | 0.6 |  | 
C[C@@H]1C[C@H](c2ncc(-c3ccnn3C)[nH]2)n2c1nc(-c1c(-n3cnnn3)ccc(Cl)c1F)cc2=O (stereo in doubt) [Example 143, (6R*,8R*)-2-(3-Chloro-2-fluoro-6-(1H-tetrazol-1-yl)phenyl)-8-methyl-6-(5-(1-methyl-1H-pyrazol-5-yl)-1H-imidazol-2-yl)-7,8-dihydropyrrolo[1,2-a]pyrimidin-4(6H)-one] |  |  | > 10000 | > 10000
C[C@H]1C[C@@H](c2ncc(-c3ccnc(C(F)(F)F)c3)[nH]2)n2c1nc(-c1c(-n3cnnn3)ccc(Cl)c1F)cc2=O (relative stereo) [Example 148, (6S*,8S*)-2-(3-Chloro-2-fluoro-6-(1H-tetrazol-1-yl)phenyl)-8-methyl-6-(5-(2-(trifluoromethyl)pyridin-4-yl)-1H-imidazol-2-yl)-7,8-dihydropyrrolo[1,2-a]pyrimidin-4(6H)-one] | 94 | 47.6 |  | 
COC(=O)Nc1ccc(-c2cnc([C@@H]3C[C@@H](C)c4nc(-c5c(-n6cnnn6)ccc(Cl)c5F)cc(=O)n43)[nH]2)cc1 (stereo in doubt) [Example 126, Methyl (4-(2-((6*S,8*R)-2-(3-Chloro-2-fluoro-6-(1H-tetrazol-1-yl)phenyl)-8-methyl-4-oxo-4,6,7,8-tetrahydropyrrolo[1,2-a]pyrimidin-6-yl)-1H-imidazol-5-yl)phenyl)carbamate] | 3.4 | 0.3 |  | 
O=c1cc(-c2c(-n3cnnn3)ccc(Cl)c2F)cc2n1[C@@H](c1ncc(-c3ccnc(CO)c3F)[nH]1)CC21CC1 (single isomer, unassigned) [Example 8] |  | > 100 | > 1000 | 
COC(=O)Nc1ccc(-c2cnc([C@@H]3C[C@@H](C)c4nc(-c5c(-n6cnnn6)ccc(Cl)c5F)cc(=O)n43)[nH]2)cn1 (stereo in doubt) [Example 118, Methyl (5-(2-((6*S,8*R)-2-(3-Chloro-2-fluoro-6-(1H-tetrazol-1-yl)phenyl)-8-methyl-4-oxo-4,6,7,8-tetrahydropyrrolo[1,2-a]pyrimidin-6-yl)-1H-imidazol-5-yl)pyridin-2-yl)carbamate] | 15 | 7.9 |  | 
C[C@H]1C[C@@H](c2ncc(-c3ncc(N)nc3C(F)F)[nH]2)n2c1nc(-c1c(-n3cnnn3)ccc(Cl)c1F)cc2=O (relative stereo) [Example 86, (6*S,8*S)-6-(5-(5-Amino-3-(difluoromethyl)pyrazin-2-yl)-1H-imidazol-2-yl)-2-(3-chloro-2-fluoro-6-(1H-tetrazol-1-yl)phenyl)-8-methyl-7,8-dihydropyrrolo[1,2-a]pyrimidin-4(6H)-one] | 819 | > 100 |  | 
